Measured values: US20080039422A1, “Vitamin B12-Containing Compositions and Methods of Use” (Transition Therapeutics Inc., priority 2004, published 2008)

Assays:
[1] = Stability of CN-Cbl solutions stored at room temperature (3 days, 2 weeks); format: physicochemical; details: After 2 weeks at Room Temperature, ethanol 0%, PG 0% (v/v)
[2] = reported, cited from earlier work
[3] = Stability of CN-Cbl solutions stored at room temperature (3 days, 2 weeks); format: physicochemical; details: for Conc of CN-Cbl: After 2 weeks at Room Temperature
Procedure: To determine the stability of the various solutions, the clarified stocks were aliquoted into fresh tubes and stored at room temperature, protected from light, for up to two weeks. Prior to measuring the concentrations of CN-Cbl on subsequent occasions, the tubes were centrifuged for ten minutes at rcf 16,100. The concentration of CN-Cbl was measured as described above by spectrophotometry.
In the experiments described above, the concentration of CN-Cbl was measured within an hour or two after the components of the solutions were initially combined. To determine the stability of the preparations, the concentrations of CN-Cbl were measured in individual excipients after three days and the concentrations of CN-Cbl in combined excipients were measured after two weeks. Tables 3A-3B are tables showing the concentrations of CN-Cbl (mg/ml) in various solutions after three days incubation at room temperature. Solutions containing 0-60% propylene glycol (Table 3A) and solutions containing 0-40% ethanol (Table 3B) were challenged with 50, 75, 100, and 125 mg/ml CN-Cbl. Table 4 is a table showing the concentrations of CN-Cbl in excipients containing ethanol and propylene glycol after two weeks incubation at room temperature. The solutions were challenged with either 50 or 75 mg/ml CN-Cbl and the excipients contained ethanol (10, 15, or 20%) and propylene glycol (20, 30, or 40%). […] Regardless of the diminution in concentration over time, however, it was hypothesized that the initial concentrations of CN-Cbl could be restored with an additional application of energy (e.g., mixing, heating, or both mixing and heating; see below).

## cyanocobalamin [CN-Cbl]
[1]; challenge 50 mg/mL
  Conc of CN-Cbl: 11460 µg/mL
[1]; challenge 75 mg/mL
  Conc of CN-Cbl: 12310 µg/mL
[2]; anhydrous form
  hygroscopicity: very hygroscopic
[2]; 1:80 (Merck Index 1996)
  solubility in water: ~12.5 mg/mL
[3]; challenge 50 mg/mL, ethanol 10%, PG 20% (v/v)
  Conc of CN-Cbl: 26680 µg/mL
[3]; challenge 50 mg/mL, ethanol 10%, PG 30% (v/v)
  Conc of CN-Cbl: 39460 µg/mL
[3]; challenge 50 mg/mL, ethanol 10%, PG 40% (v/v)
  Conc of CN-Cbl: 50650 µg/mL
[3]; challenge 50 mg/mL, ethanol 15%, PG 20% (v/v)
  Conc of CN-Cbl: 48720 µg/mL
[3]; challenge 50 mg/mL, ethanol 15%, PG 30% (v/v)
  Conc of CN-Cbl: 49780 µg/mL
[3]; challenge 50 mg/mL, ethanol 15%, PG 40% (v/v)
  Conc of CN-Cbl: 49390 µg/mL
[3]; challenge 50 mg/mL, ethanol 20%, PG 20% (v/v)
  Conc of CN-Cbl: 47080 µg/mL
[3]; challenge 50 mg/mL, ethanol 20%, PG 30% (v/v)
  Conc of CN-Cbl: 49780 µg/mL
[3]; challenge 50 mg/mL, ethanol 20%, PG 40% (v/v)
  Conc of CN-Cbl: 49870 µg/mL
[3]; challenge 75 mg/mL, ethanol 10%, PG 20% (v/v)
  Conc of CN-Cbl: 26910 µg/mL
[3]; challenge 75 mg/mL, ethanol 10%, PG 30% (v/v)
  Conc of CN-Cbl: 35210 µg/mL
[3]; challenge 75 mg/mL, ethanol 10%, PG 40% (v/v)
  Conc of CN-Cbl: 55660 µg/mL
[3]; challenge 75 mg/mL, ethanol 15%, PG 20% (v/v)
  Conc of CN-Cbl: 33280 µg/mL
[3]; challenge 75 mg/mL, ethanol 15%, PG 30% (v/v)
  Conc of CN-Cbl: 43310 µg/mL
[3]; challenge 75 mg/mL, ethanol 15%, PG 40% (v/v)
  Conc of CN-Cbl: 74280 µg/mL
[3]; challenge 75 mg/mL, ethanol 20%, PG 20% (v/v)
  Conc of CN-Cbl: 38390 µg/mL
[3]; challenge 75 mg/mL, ethanol 20%, PG 30% (v/v)
  Conc of CN-Cbl: 59620 µg/mL
[3]; challenge 75 mg/mL, ethanol 20%, PG 40% (v/v)
  Conc of CN-Cbl: 75820 µg/mL
[3]; After 3 days at Room Temperature, challenge 50 mg/ml, PG 0% v/v
  concentration of CN-Cbl: 13600 µg/mL
[3]; After 3 days at Room Temperature, challenge 50 mg/ml, PG 10% v/v
  concentration of CN-Cbl: 19500 µg/mL
[3]; After 3 days at Room Temperature, challenge 50 mg/ml, PG 20% v/v
  concentration of CN-Cbl: 25300 µg/mL
[3]; After 3 days at Room Temperature, challenge 50 mg/ml, PG 30% v/v
  concentration of CN-Cbl: 31000 µg/mL
[3]; After 3 days at Room Temperature, challenge 50 mg/ml, PG 40% v/v
  concentration of CN-Cbl: 50000 µg/mL
[3]; After 3 days at Room Temperature, challenge 50 mg/ml, PG 50% v/v
  concentration of CN-Cbl: 49900 µg/mL
[3]; After 3 days at Room Temperature, challenge 50 mg/ml, PG 60% v/v
  concentration of CN-Cbl: 51500 µg/mL
[3]; After 3 days at Room Temperature, challenge 75 mg/ml, PG 0% v/v
  concentration of CN-Cbl: 15000 µg/mL
[3]; After 3 days at Room Temperature, challenge 75 mg/ml, PG 10% v/v
  concentration of CN-Cbl: 20100 µg/mL
[3]; After 3 days at Room Temperature, challenge 75 mg/ml, PG 20% v/v
  concentration of CN-Cbl: 25800 µg/mL
[3]; After 3 days at Room Temperature, challenge 75 mg/ml, PG 30% v/v
  concentration of CN-Cbl: 30500 µg/mL
[3]; After 3 days at Room Temperature, challenge 75 mg/ml, PG 40% v/v
  concentration of CN-Cbl: 40500 µg/mL
[3]; After 3 days at Room Temperature, challenge 75 mg/ml, PG 50% v/v
  concentration of CN-Cbl: 67000 µg/mL
[3]; After 3 days at Room Temperature, challenge 75 mg/ml, PG 60% v/v
  concentration of CN-Cbl: 75800 µg/mL
[3]; After 3 days at Room Temperature, challenge 100 mg/ml, PG 0% v/v
  concentration of CN-Cbl: 14900 µg/mL
[3]; After 3 days at Room Temperature, challenge 100 mg/ml, PG 10% v/v
  concentration of CN-Cbl: 19500 µg/mL
[3]; After 3 days at Room Temperature, challenge 100 mg/ml, PG 20% v/v
  concentration of CN-Cbl: 25000 µg/mL
[3]; After 3 days at Room Temperature, challenge 100 mg/ml, PG 30% v/v
  concentration of CN-Cbl: 28800 µg/mL
[3]; After 3 days at Room Temperature, challenge 100 mg/ml, PG 40% v/v
  concentration of CN-Cbl: 37600 µg/mL
[3]; After 3 days at Room Temperature, challenge 100 mg/ml, PG 50% v/v
  concentration of CN-Cbl: 55900 µg/mL
[3]; After 3 days at Room Temperature, challenge 100 mg/ml, PG 60% v/v
  concentration of CN-Cbl: 97200 µg/mL
[3]; After 3 days at Room Temperature, challenge 125 mg/ml, PG 0% v/v
  concentration of CN-Cbl: 14500 µg/mL
[3]; After 3 days at Room Temperature, challenge 125 mg/ml, PG 10% v/v
  concentration of CN-Cbl: 20400 µg/mL
[3]; After 3 days at Room Temperature, challenge 125 mg/ml, PG 20% v/v
  concentration of CN-Cbl: 23100 µg/mL
[3]; After 3 days at Room Temperature, challenge 125 mg/ml, PG 30% v/v
  concentration of CN-Cbl: 28300 µg/mL
[3]; After 3 days at Room Temperature, challenge 125 mg/ml, PG 40% v/v
  concentration of CN-Cbl: 38600 µg/mL
[3]; After 3 days at Room Temperature, challenge 125 mg/ml, PG 50% v/v
  concentration of CN-Cbl: 46200 µg/mL
[3]; After 3 days at Room Temperature, challenge 125 mg/ml, PG 60% v/v
  concentration of CN-Cbl: 78700 µg/mL
[3]; after three days at room temperature, challenge 50 mg/ml, EtOH 0% v/v
  concentration of CN-Cbl: 13600 µg/mL
[3]; after three days at room temperature, challenge 50 mg/ml, EtOH 10% v/v
  concentration of CN-Cbl: 20500 µg/mL
[3]; after three days at room temperature, challenge 50 mg/ml, EtOH 20% v/v
  concentration of CN-Cbl: 26900 µg/mL
[3]; after three days at room temperature, challenge 50 mg/ml, EtOH 30% v/v
  concentration of CN-Cbl: 40000 µg/mL
[3]; after three days at room temperature, challenge 50 mg/ml, EtOH 40% v/v
  concentration of CN-Cbl: 47600 µg/mL
[3]; after three days at room temperature, challenge 75 mg/ml, EtOH 0% v/v
  concentration of CN-Cbl: 15000 µg/mL
[3]; after three days at room temperature, challenge 75 mg/ml, EtOH 10% v/v
  concentration of CN-Cbl: 23000 µg/mL
[3]; after three days at room temperature, challenge 75 mg/ml, EtOH 20% v/v
  concentration of CN-Cbl: 26100 µg/mL
[3]; after three days at room temperature, challenge 75 mg/ml, EtOH 30% v/v
  concentration of CN-Cbl: 43000 µg/mL
[3]; after three days at room temperature, challenge 75 mg/ml, EtOH 40% v/v
  concentration of CN-Cbl: 53400 µg/mL
[3]; after three days at room temperature, challenge 100 mg/ml, EtOH 0% v/v
  concentration of CN-Cbl: 14900 µg/mL
[3]; after three days at room temperature, challenge 100 mg/ml, EtOH 10% v/v
  concentration of CN-Cbl: 24000 µg/mL
[3]; after three days at room temperature, challenge 100 mg/ml, EtOH 20% v/v
  concentration of CN-Cbl: 27800 µg/mL
[3]; after three days at room temperature, challenge 100 mg/ml, EtOH 30% v/v
  concentration of CN-Cbl: 34500 µg/mL
[3]; after three days at room temperature, challenge 100 mg/ml, EtOH 40% v/v
  concentration of CN-Cbl: 46100 µg/mL
[3]; after three days at room temperature, challenge 125 mg/ml, EtOH 0% v/v
  concentration of CN-Cbl: 14500 µg/mL
[3]; after three days at room temperature, challenge 125 mg/ml, EtOH 10% v/v
  concentration of CN-Cbl: 21500 µg/mL
[3]; after three days at room temperature, challenge 125 mg/ml, EtOH 20% v/v
  concentration of CN-Cbl: 28400 µg/mL
[3]; after three days at room temperature, challenge 125 mg/ml, EtOH 30% v/v
  concentration of CN-Cbl: 37900 µg/mL
[3]; after three days at room temperature, challenge 125 mg/ml, EtOH 40% v/v
  concentration of CN-Cbl: 50900 µg/mL
